# How the values were obtained:
# HT-29 [1] = assay: Growth inhibition of human HT-29 cells assessed as cell growth at 100 uM incubated for 48 hrs by sulforhodamine B assay relative to control; format: functional; conditions: HT-29, 48 h, read-out: Activity
# RXF 393 = assay: Growth inhibition of human RXF393 cells assessed as cell growth at 100 uM incubated for 48 hrs by sulforhodamine B assay relative to control; format: functional; conditions: RXF 393, 48 h, read-out: Activity
# NCI/ADR-RES = assay: Growth inhibition of human NCI/ADR-RES cells assessed as cell growth at 1 uM incubated for 48 hrs by sulforhodamine B assay relative to control; format: functional; conditions: read-out: Activity
# SNB-75 = assay: Growth inhibition of human SNB75 cells assessed as cell growth at 0.1 uM incubated for 48 hrs by sulforhodamine B assay relative to control; format: functional; conditions: SNB-75, 48 h, read-out: Activity
# SN12C = assay: Growth inhibition of human SN12C cells assessed as cell growth at 0.1 uM incubated for 48 hrs by sulforhodamine B assay relative to control; format: functional; conditions: read-out: Activity
# T47D = assay: Growth inhibition of human T47D cells assessed as cell growth at 0.1 uM incubated for 48 hrs by sulforhodamine B assay relative to control; format: functional; conditions: read-out: Activity
# NCI-H322M [2] = assay: Growth inhibition of human NCI-H322M cells assessed as cell growth at 100 uM incubated for 48 hrs by sulforhodamine B assay relative to control; format: functional; conditions: read-out: Activity
# OVCAR-5 = assay: Growth inhibition of human OVCAR5 cells assessed as cell growth at 1 uM incubated for 48 hrs by sulforhodamine B assay relative to control; format: functional; conditions: OVCAR-5, 48 h, read-out: Activity
# A549 = assay: Growth inhibition of human A549/ATCC cells assessed as cell growth at 1 uM incubated for 48 hrs by sulforhodamine B assay relative to control; format: functional; conditions: A549, 48 h, read-out: Activity
# HCC 2998 [3] = assay: Growth inhibition of human HCC2998 cells incubated for 48 hrs by sulforhodamine B assay; format: functional, cell-based; conditions: HCC 2998, 48 h
# Hs-578T [4] = assay: Growth inhibition of human Hs578T cells incubated for 48 hrs by sulforhodamine B assay; format: functional, cell-based
# SNB-19 = assay: Growth inhibition of human SNB19 cells incubated for 48 hrs by sulforhodamine B assay; format: functional, cell-based; conditions: SNB-19, 48 h
# HT-29 [5] = assay: Growth inhibition of human HT-29 cells assessed as cell growth at 1 uM incubated for 48 hrs by sulforhodamine B assay relative to control; format: functional; conditions: HT-29, 48 h, read-out: Activity
# OVCAR-4 = assay: Growth inhibition of human OVCAR4 cells assessed as cell growth at 0.01 uM incubated for 48 hrs by sulforhodamine B assay relative to control; format: functional; conditions: OVCAR-4, 48 h, read-out: Activity
# SK-MEL-28 = assay: Growth inhibition of human SK-MEL-28 cells assessed as cell growth at 1 uM incubated for 48 hrs by sulforhodamine B assay relative to control; format: functional; conditions: SK-MEL-28, 48 h, read-out: Activity
# HCC 2998 [6] = assay: Growth inhibition of human HCC2998 cells assessed as cell growth at 0.01 uM incubated for 48 hrs by sulforhodamine B assay relative to control; format: functional; conditions: HCC 2998, 48 h, read-out: Activity
# UACC-257 = assay: Growth inhibition of human UACC257 cells assessed as cell growth at 1 uM incubated for 48 hrs by sulforhodamine B assay relative to control; format: functional; conditions: UACC-257, 48 h, read-out: Activity
# NCI-H322M [7] = assay: Growth inhibition of human NCI-H322M cells assessed as cell growth at 1 uM incubated for 48 hrs by sulforhodamine B assay relative to control; format: functional; conditions: read-out: Activity
# MDA-MB-468 = assay: Growth inhibition of human MDA-MB-468 cells assessed as cell growth at 100 uM incubated for 48 hrs by sulforhodamine B assay relative to control; format: functional; conditions: MDA-MB-468, 48 h, read-out: Activity
# MDA-MB-435 = assay: Growth inhibition of human MDA-MB-435 cells incubated for 48 hrs by sulforhodamine B assay; format: functional, cell-based; conditions: MDA-MB-435, 48 h
# UACC-62 = assay: Growth inhibition of human UACC62 cells incubated for 48 hrs by sulforhodamine B assay; format: functional, cell-based; conditions: UACC-62, 48 h
# SK-MEL-2 = assay: Growth inhibition of human SK-MEL-2 cells assessed as cell growth at 0.01 uM incubated for 48 hrs by sulforhodamine B assay relative to control; format: functional; conditions: SK-MEL-2, 48 h, read-out: Activity
# HOP-62 = assay: Growth inhibition of human HOP62 cells assessed as cell growth at 0.01 uM incubated for 48 hrs by sulforhodamine B assay relative to control; format: functional; conditions: HOP-62, 48 h, read-out: Activity
# LOX IMVI [8] = assay: Growth inhibition of human LOXIMVI cells assessed as cell growth at 0.01 uM incubated for 48 hrs by sulforhodamine B assay relative to control; format: functional; conditions: read-out: Activity
# UO-31 = assay: Growth inhibition of human UO31 cells assessed as cell growth at 100 uM incubated for 48 hrs by sulforhodamine B assay relative to control; format: functional; conditions: UO-31, 48 h, read-out: Activity
# Hs-578T [9] = assay: Growth inhibition of human Hs578T cells assessed as cell growth at 100 uM incubated for 48 hrs by sulforhodamine B assay relative to control; format: functional; conditions: read-out: Activity
# LOX IMVI [10] = assay: Growth inhibition of human LOXIMVI cells assessed as cell growth at 100 uM incubated for 48 hrs by sulforhodamine B assay relative to control; format: functional; conditions: read-out: Activity
# NCI-H322M [11] = assay: Growth inhibition of human NCI-H322M cells assessed as cell growth at 0.1 uM incubated for 48 hrs by sulforhodamine B assay relative to control; format: functional; conditions: read-out: Activity
# COLO 205 = assay: Growth inhibition of human COLO205 cells assessed as cell growth at 0.01 uM incubated for 48 hrs by sulforhodamine B assay relative to control; format: functional; conditions: COLO 205, 48 h, read-out: Activity
# A498 = assay: Growth inhibition of human A498 cells incubated for 48 hrs by sulforhodamine B assay; format: functional, cell-based; conditions: A498, 48 h
# [12] = read-out: LC50 (the source's name)
# [13] = read-out: pLC50 (the source's name) (converted)
smiles,measurement,setting,value
COc1cc(Cl)cc(-c2nn(-c3cccc(NC(=O)Nc4ccc(Cl)c(C(F)(F)F)c4)c3)cc2-c2ccncc2)c1,growth at 100 µM,HT-29 [1],-84%
same,growth at 100 µM,RXF 393,-58%
same,growth at 1 µM,NCI/ADR-RES,66%
same,growth at 0.1 µM,SNB-75,52%
same,growth at 0.1 µM,SN12C,100%
same,growth at 0.1 µM,T47D,103%
same,growth at 100 µM,NCI-H322M [2],-22%
same,growth at 1 µM,OVCAR-5,81%
same,growth at 1 µM,A549,40%
same,GI50,HCC 2998 [3]; read-out: GI50,2.91 µM
same,CC50,HCC 2998 [3]; [12],4.41 µM
same,TGI,HCC 2998 [3]; read-out: TGI,90.2 µM
same,GI50,HCC 2998 [3]; read-out: pGI50 (converted),2.88 µM
same,CC50,HCC 2998 [3]; [13],43.7 µM
same,TGI,HCC 2998 [3]; read-out: pTGI (converted),9.12 µM
same,GI50,Hs-578T [4]; read-out: GI50,4.29 µM
same,CC50,Hs-578T [4]; [12],> 100 µM
same,TGI,Hs-578T [4]; read-out: TGI,67.7 µM
same,GI50,Hs-578T [4]; read-out: pGI50 (converted),4.27 µM
same,CC50,Hs-578T [4]; [13],> 100 µM
same,TGI,Hs-578T [4]; read-out: pTGI (converted),67.6 µM
same,GI50,SNB-19; read-out: GI50,2.93 µM
same,CC50,SNB-19; [12],> 100 µM
same,TGI,SNB-19; read-out: TGI,17.5 µM
same,GI50,SNB-19; read-out: pGI50 (converted),1.17 µM
same,CC50,SNB-19; [13],> 100 µM
same,TGI,SNB-19; read-out: pTGI (converted),17.8 µM
same,growth at 1 µM,HT-29 [5],55%
same,growth at 0.01 µM,OVCAR-4,99%
same,growth at 1 µM,SK-MEL-28,85%
same,growth at 0.01 µM,HCC 2998 [6],95%
same,growth at 1 µM,UACC-257,83%
same,growth at 1 µM,NCI-H322M [7],89%
same,growth at 100 µM,MDA-MB-468,-27%
same,GI50,MDA-MB-435; read-out: GI50,1.75 µM
same,LC50,MDA-MB-435; read-out: LC50,> 100 µM
same,TGI,MDA-MB-435; read-out: TGI,43.5 µM
same,GI50,MDA-MB-435; read-out: pGI50 (converted),1.74 µM
same,LC50,MDA-MB-435; read-out: pLC50 (converted),> 100 µM
same,TGI,MDA-MB-435; read-out: pTGI (converted),3.47 µM
same,IC50,UACC-62,1.27 µM
same,GI50,UACC-62; read-out: GI50,1.27 µM
same,CC50,UACC-62; [12],9.51 µM
same,TGI,UACC-62; read-out: TGI,35.4 µM
same,GI50,UACC-62; read-out: pGI50 (converted),1.29 µM
same,CC50,UACC-62; [13],9.77 µM
same,TGI,UACC-62; read-out: pTGI (converted),4.9 µM
same,growth at 0.01 µM,SK-MEL-2,102%
same,growth at 0.01 µM,HOP-62,100%
same,growth at 0.01 µM,LOX IMVI [8],98%
same,growth at 100 µM,UO-31,-50%
same,growth at 100 µM,Hs-578T [9],-6%
same,growth at 100 µM,LOX IMVI [10],-34%
same,growth at 0.1 µM,NCI-H322M [11],98%
same,growth at 0.01 µM,COLO 205,97%
same,GI50,A498; read-out: GI50,2.58 µM
same,CC50,A498; [12],57.6 µM
same,TGI,A498; read-out: TGI,14.4 µM
same,GI50,A498; read-out: pGI50 (converted),2.69 µM
same,CC50,A498; [13],57.5 µM
same,TGI,A498; read-out: pTGI (converted),4.27 µM

# Reference: ChEMBL document CHEMBL4308841, “Synthesis, in vitro antiproliferative activity, and kinase inhibitory effects of pyrazole-containing diarylureas and diarylamides” (Eur J Med Chem, 2018)
